Columns and labels:
[1] = molecular target: recombinant human Mcl-1 (Mcl-1/Bim interaction) (Homo sapiens (Human), UniProt Q07820); experiment: biochemical; assay type: binding; conditions: cell free Mcl-1:Bim TR-FRET; read-out: Mcl-1 HTRF IC50
Description: Cell free Mcl-1:Bim Affinity Assay (Mcl-1 HTRF)
The inhibition of the Mcl-1/Bim interaction was measured using a time-resolved fluorescence resonance energy transfer (TR-FRET) assay. The recombinant human Mcl-1 (C-terminally 6×His tagged Mcl-1 containing residues 171-327) was generated at Amgen Inc (Thousand Oaks, Calif.). A biotinylated peptide derived from human Bim (residues 51-76) was purchased from CPC Scientific (San Jose, Calif.). The TR-FRET assay was conducted in a 384-well white OptiPlate™ (PerkinElmer, Waltham, Mass.) in a total volume of 40 μL. The reaction mixture contained 0.1 nM Mcl-1(171-327), 0.05 nM biotin-Bim(51-76), 0.05 nM LANCE® Eu-W1024 Anti-6×His (PerkinElmer), 0.072 nM Streptavidin-Xlent (Cisbio, Bedford, Mass.), and serially diluted test compounds in the binding buffer of 20 mM Hepes, pH 7.5, 150 mM NaCl, 0.016 mM Brij® 35, and 1 mM dithiothreitol. Test compounds were pre-incubated with Mcl-1(171-327) and biotin-Bim (51-76) for 60 min before addition of the detection mixture (LANCE® Eu-W1024 Anti-6×His and Streptavidin-Xlent). The reaction plates were further incubated overnight and then were read on an Envision® multimode reader (PerkinElmer). Fluorescence signals were measured at 620 nm (40-nm bandwidth) and 665 nm (7.5-nm bandwidth) with a 60 μs delay after excitation at 320 nm (75-nm bandwidth). The signal ratio at 665/620 nm corresponded to the Mcl-1/Bim interaction and was used in all data analyses. The IC50 values of test compounds were determined from duplicate data by analyzing competition curves using a four-parameter sigmoidal model in GraphPad Prism (GraphPad Software, San Diego, Calif.) or in Genedata Screener® (Genedata, Basel, Switzerland).

[2] = test system: OPM-2 human multiple myeloma cell line; experiment: Cell Viability Assay (OPM-2 10 FBS), CellTiter-Glo; assay type: cell-based; conditions: Homo sapiens, OPM-2, 16 h, read-out: OPM-2 10% FBS IC50 IP (μM), OPM-2 cells, 10% FBS, 16 h, CellTiter-Glo
Description: Cell Viability Assay (OPM-2 10 FBS)
The human multiple myeloma cell line, OPM-2, was cultured in complete growth medium containing RPMI 1640 and 10% fetal bovine serum (FBS). Cells were seeded into 384-well plates at 3000 cells/well density in complete growth medium containing 10% FBS, and incubated for 16 h with serially diluted test compounds in a 37° C. incubator with 5% CO2. Cell viability was tested using CellTiter-Glo® assay (Promega, Madison, Wis.) according to the manufacturer recommendations. Luminescence was determined using an EnVision® Multilabel plate reader 25 min after the addition of detection reagent. IC50 values were then calculated with Xlfit using a logistical 4-parameter fit model in GraphPad Prism (GraphPad Software, San Diego, Calif.) or in Genedata Screener® (Genedata, Basel, Switzerland).

Sequence of recombinant human Mcl-1 (Mcl-1/Bim interaction) (Q07820 171-327): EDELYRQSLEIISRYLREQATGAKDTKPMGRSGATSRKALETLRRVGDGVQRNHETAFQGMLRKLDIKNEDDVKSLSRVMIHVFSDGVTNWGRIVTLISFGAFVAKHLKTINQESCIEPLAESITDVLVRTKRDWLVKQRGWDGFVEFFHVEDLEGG

For `CO[C@]1(CN2CCN3CCCC[C@@H]3C2)/C=C/C[C@H](C)[C@@H](CCO[Si](c2ccccc2)(c2ccccc2)C(C)(C)C)S(=O)(=O)NC(=O)c2ccc3c(c2)N(C[C@@H]2CC[C@H]21)C[C@@]1(CCCc2cc(Cl)ccc21)CO3` [Example 359, (1S,3′R,6′R,7′R,8′E,11′S,12′R)-6-chloro-7′-methoxy-11′-methyl-12′-(2-(((2-methyl-2-propanyl)(diphenyl)silyl)oxy)ethyl)-7′-((9aR)-octahydro-2H-pyrido[1,2-a]pyrazin-2-ylmethyl)-3,4-dihydro-2H,15′H-spiro[naphthalene-1,22′-[20]oxa[13]thia[1,14]diazatetracyclo[14.7.2.0˜3,6˜.0˜19,24˜]pentacosa[8,16,18,24]tetraen]-15′-one 13′,13′-dioxide], the IC50 [1] was 2.08 nM and the IC50 [2] was over 33.3 µM.
`CO[C@@]1(CN2CCN3CCOC[C@@H]3C2)/C=C/C[C@H](C)[C@H]2CCN(C(=O)c3ccc4c(c3)N(C[C@@H]3CC[C@H]31)C[C@@]1(CCCc3cc(Cl)ccc31)CO4)S2(=O)=O` [Example 364, (1S,3′R,6′R,7′S,8′E,11′S,12′R)-6-chloro-7′-((9aS)-hexahydropyrazino[2,1-c][1,4]oxazin-8(1H)-ylmethyl)-7′-methoxy-11′-methyl-3,4-dihydro-2H,16′H-spiro[naphthalene-1,23′-[21]oxa[27]thia[1,15]diazapentacyclo[15.7.2.1˜12,15˜.0˜3,6˜.0˜20,25˜]heptacosa[8,17,19,25]tetraen]-16′-one 27′,27′-dioxide] showed an IC50 [1] of 192 nM and an IC50 [2] of over 33.3 µM.
`CO[C@@]1(CN2CCN3CCOC[C@@H]3C2)/C=C/C[C@H](C)[C@@H](CCCl)S(=O)(=O)NC(=O)c2ccc3c(c2)N(C[C@@H]2CC[C@H]21)C[C@@]1(CCCc2cc(Cl)ccc21)CO3` [Example 366, (1S,3′R,6′R,7′S,8′E,11′S,12′R)-6-chloro-12′-(2-chloroethyl)-7′-((9aS)-hexahydropyrazino[2,1-c][1,4]oxazin-8(1H)-ylmethyl)-7′-methoxy-11′-methyl-3,4-dihydro-2H,15′H-spiro[naphthalene-1,22′-[20]oxa[13]thia[1,14]diazatetracyclo[14.7.2.0˜3,6˜.0˜19,24˜]pentacosa[8,16,18,24]tetraen]-15′-one 13′,13′-dioxide] showed an IC50 [1] of 0.248 nM and an IC50 [2] of 0.133 µM.
With `CO[C@]1(CN2CCN3CCCC[C@@H]3C2)/C=C/C[C@H](C)[C@@H](CCN(C)C)S(=O)(=O)NC(=O)c2ccc3c(c2)N(C[C@@H]2CC[C@H]21)C[C@@]1(CCCc2cc(Cl)ccc21)CO3` [Example 367, (1S,3′R,6′R,7′R,8′E,11′S,12′R)-6-chloro-12′-(2-(dimethylamino)ethyl)-7′-methoxy-11′-methyl-7′-((9aR)-octahydro-2H-pyrido[1,2-a]pyrazin-2-ylmethyl)-3,4-dihydro-2H,15′H-spiro[naphthalene-1,22′-[20]oxa[13]thia[1,14]diazatetracyclo[14.7.2.0˜3,6˜.0˜19,24˜]pentacosa[8,16,18,24]tetraen]-15′-one 13′,13′-dioxide] the IC50 [1] was 0.201 nM and the IC50 [2] was 0.273 µM.
With `CCO[C@]1(CN2CCN3CCOC[C@@H]3C2)CCC[C@H](C)[C@@H](CCOC)S(=O)(=O)NC(=O)c2ccc3c(c2)N(C[C@@H]2CC[C@H]21)C[C@@]1(CCCc2ccccc21)CO3` [Example 517, (1S,3′R,6′R,7′R,11′S,12′R)-7′-ethoxy-7′-((9aS)-hexahydropyrazino[2,1-c][1,4]oxazin-8(1H)-ylmethyl)-12′-(2-methoxyethyl)-11′-methyl-3,4-dihydro-2H,15′H-spiro[naphthalene-1,22′-[20]oxa[13]thia[1,14]diazatetracyclo[14.7.2.0˜3,6˜.0˜19,24˜]pentacosa[16,18,24]trien]-15′-one 13′,13′-dioxide] the IC50 [1] was 0.259 nM and the IC50 [2] was 0.252 µM.

Source: US11224601B1, “Compounds that inhibits MCL-1 protein” (priority 2017, dated 2022)
